Tests used:
bedstraw = assay: Test B pre/postemergence bedstraw; format: in vivo, Galium aparine
How it was run: (§1)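 Response is a visual 0-to-10 score relative to untreated plants, where 0 means no effect and 10 means complete control, taken twelve to sixteen days after application. Treatments went onto soil at planting and onto foliage of 1- to 4-leaf plants, using a surfactant-containing non-phytotoxic solvent.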

blackgrass = assay: Test B pre/postemergence blackgrass; format: in vivo, Alopecurus myosuroides
How it was run: as §1

surinam grass = assay: Test B pre/postemergence surinam grass; format: in vivo, Brachiaria decumbens
How it was run: as §1

cocklebur = assay: Test B pre/postemergence cocklebur; format: in vivo, Xanthium strumarium
How it was run: as §1

corn = assay: Test B pre/postemergence corn; format: in vivo, Zea mays
How it was run: as §1

giant foxtail = assay: Test B pre/postemergence giant foxtail; format: in vivo, Setaria faberii
How it was run: as §1

morningglory = assay: Test B pre/postemergence morningglory; format: in vivo, Ipomoea hederacea
How it was run: as §1

pigweed = assay: Test B pre/postemergence pigweed; format: in vivo, Amaranthus retroflexus
How it was run: as §1

rape = assay: Test B pre/postemergence rape; format: in vivo, Brassica napus
How it was run: as §1

sugar beet = assay: Test B pre/postemergence sugar beet; format: in vivo, Beta vulgaris
How it was run: as §1

velvetleaf = assay: Test B pre/postemergence velvetleaf; format: in vivo, Abutilon theophrasti
How it was run: as §1

purple nutsedge = assay: Test B pre/postemergence purple nutsedge; format: in vivo, Cyperus rotundus
How it was run: as §1

rice = assay: Test B flood test rice; format: in vivo, Oryza sativa
How it was run: (§2)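 Each value is a visual injury score relative to controls, with 10 meaning complete control and 0 no effect. Evaluation took place twelve to sixteen days after the 2-leaf-stage plants were treated and kept in the greenhouse.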

duck salad = assay: Test B flood test duck salad; format: in vivo, Heteranthera limosa
How it was run: as §2

bamyardgrass = assay: Test B flood test barnyardgrass; format: in vivo, Echinochloa crus-galli
How it was run: as §2

[1] = Preemergence, Rate 62 g/ha, scale of 0 to 10 where 0 is no effect and 10 is complete control
[2] = Preemergence, Rate 125 g/ha, 0 is no effect, 10 is complete control
[3] = Preemergence, Rate 250 g/ha, scale 0 to 10, 0 is no effect, 10 is complete control
[4] = Preemergence, Rate 500 g/ha, scale 0 to 10 (0 no effect, 10 complete control)
[5] = Rate 62 g/ha, Postemergence, scale of 0 to 10 where 0 is no effect and 10 is complete control
[6] = Rate 125 g/ha, Postemergence, scale 0 to 10
[7] = Rate 500 g/ha, Postemergence, scale 0 to 10
[8] = Rate 62 g/ha, headed Pre-emergence (flood test species), scale 0 to 10 (0 no effect, 10 complete control)
[9] = Rate 125 g/ha, Pre-emergence, flood test species, scale 0 to 10 where 0 is no effect and 10 is complete control
[10] = Rate 250 g/ha, Pre-emergence, flood-test species, scale 0 to 10, 0 is no effect, 10 is complete control
[11] = Rate 500 g/ha, headed Pre-emergence (flood test species), scale 0 to 10 (0 no effect, 10 complete control)

## Cc1ccccc1-n1c(=O)on(C(=O)N(c2ccc(Cl)cc2Cl)C(C)C)c1=O [Compound 185]
bedstraw; [1]
  Bedstraw plant response rating: 0
bedstraw; [2]
  Bedstraw plant response rating (0 to 10 scale): 0
bedstraw; [3]
  Bedstraw plant response rating: 0
bedstraw; [4]
  Bedstraw plant response rating: 0
bedstraw; [5]
  Bedstraw plant response rating: 0
bedstraw; [6]
  Bedstraw plant response rating: 0
bedstraw; Rate 250 g/ha, Postemergence
  Plant response rating (0 to 10; 0 is no effect, 10 is complete control), Bedstraw: 3
bedstraw; [7]
  Bedstraw plant response rating: 3
blackgrass; [1]
  Blackgrass plant response rating: 0
blackgrass; [2]
  Blackgrass plant response rating (0 to 10 scale): 0
blackgrass; [3]
  Blackgrass plant response rating: 0
blackgrass; [4]
  Blackgrass plant response rating: 0
blackgrass; [5]
  Blackgrass plant response rating: 0
blackgrass; [6]
  Blackgrass plant response rating: 0
blackgrass; Rate 250 g/ha, Postemergence
  Plant response rating (0 to 10; 0 is no effect, 10 is complete control), Blackgrass: 0
blackgrass; [7]
  Blackgrass plant response rating: 0
Surinam grass; [1]
  B. signalgrass plant response rating: 0
Surinam grass; [2]
  B. signalgrass plant response rating (0 to 10 scale): 0
Surinam grass; [3]
  B. signalgrass plant response rating: 0
Surinam grass; [4]
  B. signalgrass plant response rating: 0
Surinam grass; [5]
  B. signalgrass plant response rating: 0
Surinam grass; Rate 125 g/ha, Postemergence, scale 0 (no effect) to 10 (complete control)
  B. signalgrass plant response rating: 0
Surinam grass; Rate 250 g/ha, Postemergence, scale 0 to 10, 0 is no effect, 10 is complete control
  Plant response rating, B. signalgrass: 0
Surinam grass; Rate 500 g/ha, Postemergence, scale 0 to 10, 0 no effect, 10 complete control
  B. signalgrass plant response rating: 0
cocklebur; [2]
  Cocklebur plant response rating (0 to 10 scale): 0
cocklebur; [3]
  Cocklebur plant response rating: 0
cocklebur; [5]
  Cocklebur plant response rating: 0
cocklebur; [6]
  Cocklebur plant response rating: 0
cocklebur; Rate 250 g/ha, Postemergence
  Plant response rating (0 to 10; 0 is no effect, 10 is complete control), Cocklebur: 0
cocklebur; [7]
  Cocklebur plant response rating: 2
corn; [1]
  Corn plant response rating: 0
corn; [2]
  Corn plant response rating (0 to 10 scale): 0
corn; [3]
  Corn plant response rating: 0
corn; [4]
  Corn plant response rating: 0
corn; [5]
  Corn plant response rating: 0
corn; [6]
  Corn plant response rating: 0
corn; Rate 250 g/ha, Postemergence
  Plant response rating (0 to 10; 0 is no effect, 10 is complete control), Corn: 0
corn; [7]
  Corn plant response rating: 0
Giant foxtail; [1]
  Giant foxtail plant response rating: 0
Giant foxtail; [2]
  Giant foxtail plant response rating (0 to 10 scale): 5
Giant foxtail; [3]
  Giant foxtail plant response rating: 9
Giant foxtail; [4]
  Giant foxtail plant response rating: 9
Giant foxtail; [5]
  Giant foxtail plant response rating: 0
Giant foxtail; [6]
  Giant foxtail plant response rating: 0
Giant foxtail; Rate 250 g/ha, Postemergence
  Plant response rating (0 to 10; 0 is no effect, 10 is complete control), Giant foxtail: 0
Giant foxtail; [7]
  Giant foxtail plant response rating: 1
morningglory; [1]
  Morningglory plant response rating: 0
morningglory; [2]
  Morningglory plant response rating (0 to 10 scale): 0
morningglory; [3]
  Morningglory plant response rating: 0
morningglory; [4]
  Morningglory plant response rating: 0
morningglory; [5]
  Morningglory plant response rating: 1
morningglory; [6]
  Morningglory plant response rating: 1
morningglory; Rate 250 g/ha, Postemergence
  Plant response rating (0 to 10; 0 is no effect, 10 is complete control), Morningglory: 1
morningglory; [7]
  Morningglory plant response rating: 2
pigweed; [1]
  Redroot pigweed plant response rating: 0
pigweed; [2]
  Redroot pigweed plant response rating (0 to 10 scale): 0
pigweed; [3]
  Redroot pigweed plant response rating: 0
pigweed; [4]
  Redroot pigweed plant response rating: 0
pigweed; [5]
  Redroot pigweed plant response rating: 0
pigweed; [6]
  Redroot pigweed plant response rating: 1
pigweed; Rate 250 g/ha, Postemergence
  Plant response rating (0 to 10; 0 is no effect, 10 is complete control), Redroot pigweed: 3
pigweed; [7]
  Redroot pigweed plant response rating: 4
rape; [1]
  Rape plant response rating: 0
rape; [2]
  Rape plant response rating (0 to 10 scale): 0
rape; [3]
  Rape plant response rating: 0
rape; [4]
  Rape plant response rating: 0
rape; [5]
  Rape plant response rating: 0
rape; [6]
  Rape plant response rating: 0
rape; Rate 250 g/ha, Postemergence
  Plant response rating (0 to 10; 0 is no effect, 10 is complete control), Rape: 0
rape; [7]
  Rape plant response rating: 0
Sugar beet; [1]
  Sugarbeets plant response rating: 0
Sugar beet; [2]
  Sugarbeets plant response rating (0 to 10 scale): 0
Sugar beet; [3]
  Sugarbeets plant response rating: 0
Sugar beet; [4]
  Sugarbeets plant response rating: 0
Sugar beet; [5]
  Sugarbeets plant response rating: 0
Sugar beet; [6]
  Sugarbeets plant response rating: 0
Sugar beet; Rate 250 g/ha, Postemergence
  Plant response rating (0 to 10; 0 is no effect, 10 is complete control), Sugarbeets: 0
Sugar beet; [7]
  Sugarbeets plant response rating: 0
velvetleaf; [1]
  Velvetleaf plant response rating: 0
velvetleaf; [3]
  Velvetleaf plant response rating: 0
velvetleaf; [4]
  Velvetleaf plant response rating: 0
velvetleaf; [6]
  Velvetleaf plant response rating: 0
velvetleaf; Rate 250 g/ha, Postemergence
  Plant response rating (0 to 10; 0 is no effect, 10 is complete control), Velvetleaf: 0
Purple nutsedge; [3]
  Nutsedge plant response rating: 0
Purple nutsedge; [4]
  Nutsedge plant response rating: 0
Purple nutsedge; [5]
  Nutsedge plant response rating: 0
Purple nutsedge; [6]
  Nutsedge plant response rating: 0
Purple nutsedge; Rate 250 g/ha, Postemergence
  Plant response rating (0 to 10; 0 is no effect, 10 is complete control), Nutsedge: 0
Purple nutsedge; [7]
  Nutsedge plant response rating: 0
rice; [8]
  Rice plant response rating: 0
rice; [9]
  Rice plant response rating: 0
rice; [10]
  Rice plant response rating: 0
rice; [11]
  Plant response rating, Rice: 0
Duck salad; [8]
  Ducksalad plant response rating: 0
Duck salad; [9]
  Ducksalad plant response rating: 0
Duck salad; [10]
  Ducksalad plant response rating: 0
Duck salad; [11]
  Plant response rating, Ducksalad: 0
bamyardgrass; [8]
  Barnyardgrass plant response rating: 0
bamyardgrass; [9]
  Barnyardgrass plant response rating: 0
bamyardgrass; [10]
  Barnyardgrass plant response rating: 0
bamyardgrass; [11]
  Plant response rating, Barnyardgrass: 0

From US6737383B1, “Herbicidal oxadiazolidines” (priority 1999, dated 2004)
